{"source": "patent US11795147B2", "about": "“Modulators of complex I” (Boehringer Ingelheim International GmbH, priority 2019, dated 2023)"}
{"molecular_target": "Complex I", "assay": "Assay A: Determination of Complex I mediated ROS-inhibition (CI)", "type": "biochemical", "conditions": "read-out: CI IC50; ROS generation by Complex I purified from bovine heart, Amplex Red/horse radish peroxidase readout, 8 point concentration-response", "units": {"IC50": "nM"}}
{"smiles": "CN(C)c1ccc2c(c1)/C(=C1\\CCCN1)C(=O)N2C", "note": "[Compound 1]", "IC50": 60}
{"smiles": "CN(C)c1ccc2c(c1)/C(=C1\\COCCN1)C(=O)N2C", "note": "[Compound 2]", "IC50": 80}
{"smiles": "CC(C)Nc1ccc2c(c1)/C(=C1\\COCCN1)C(=O)N2C1CCOCC1", "note": "[Compound 3]", "IC50": 77}
{"smiles": "O=C1/C(=C2/COCCN2)c2cc(N3CCOCC3)ccc2N1C1CCOCC1", "note": "[Compound 4]", "IC50": 242}
{"smiles": "CC(C)Nc1ccc2c(c1)/C(=C1\\CN(C3COC3)CCN1)C(=O)N2C1CCOCC1", "note": "[Compound 5]", "IC50": 81}
{"smiles": "CC(C)Nc1ccc2c(c1)C(=C1CCOCC1)C(=O)N2C1CCOCC1", "note": "[Compound 6]", "IC50": 533}
{"smiles": "CC(C)N1C(=O)C(=C2CCOCC2)c2cc(N3CCCC3)ccc21", "note": "[Compound 7]", "IC50": 350}
{"smiles": "CN1CCC/C1=C1/C(=O)N(C2CCOCC2)c2ccc(NC3CCC3)cc21", "note": "[Compound 9]", "IC50": 398}
{"smiles": "CC(=O)N1CCN/C(=C2\\C(=O)N(C3CCOCC3)c3ccc(N4CCCC4)cc32)CC1", "note": "[Compound 12]", "IC50": 194}
{"smiles": "O=C1/C(=C2/CCOCCN2)c2cc(NC3CCCC3)ccc2N1C1CCOCC1", "note": "[Compound 13]", "IC50": 84}
{"smiles": "O=C1/C(=C2/COCCN2)c2cc(NC3CCC3)ccc2N1C1CCOC1", "note": "(stereo not drawn) [Compound 14]", "IC50": 101}
{"smiles": "CC(Nc1ccc2c(c1)/C(=C1\\COCCN1)C(=O)N2C(C)C)c1cccnc1", "note": "(stereo not drawn) [Compound 15]", "IC50": 96}
{"smiles": "COC1COCCC1Nc1ccc2c(c1)/C(=C1\\COCCN1)C(=O)N2C(C)C", "note": "(stereo not drawn) [Compound 16]", "IC50": 313}
{"smiles": "CC(Nc1ccc2c(c1)/C(=C1\\COCCN1)C(=O)N2C(C)C)c1ccnn1C", "note": "(stereo not drawn) [Compound 17]", "IC50": 22}
{"smiles": "O=C1/C(=C2/COCCN2)c2cc(NC3CCOCC3)ccc2N1C1CCOCC1", "note": "[Compound 18]", "IC50": 11}
{"smiles": "CC(C)N1CCC(Nc2ccc3c(c2)/C(=C2\\COCCN2)C(=O)N3C2CCOCC2)CC1", "note": "[Compound 19]", "IC50": 22}
{"smiles": "CC(Nc1ccc2c(c1)/C(=C1\\COCCN1)C(=O)N2C1CCOCC1)C1CC1", "note": "(stereo not drawn) [Compound 20]", "IC50": 73}
{"smiles": "O=C1/C(=C2/COCCN2)c2cc(NCc3cc[nH]n3)ccc2N1C1CCOCC1", "note": "[Compound 21]", "IC50": 108}
{"smiles": "CC(C)N1C(=O)/C(=C2/CCOCCN2)c2cc(NC3CCC3)ccc21", "note": "[Compound 22]", "IC50": 87}
{"smiles": "CC(C)N1CCN/C(=C2\\C(=O)N(C)c3ccc(N4CCCC4)cc32)C1", "note": "[Compound 23]", "IC50": 137}
{"smiles": "CC(C)N1C(=O)C(=C2CCOCC2)c2cc(NC3CCC3)ccc21", "note": "[Compound 25]", "IC50": 707}
{"smiles": "CC(C)Nc1ccc2c(c1)/C(=C1\\COCCN1)C(=O)N2C1COCCOC1", "note": "[Compound 26]", "IC50": 20}
{"smiles": "CC(C)C(C)Nc1ccc2c(c1)/C(=C1\\COCCN1)C(=O)N2C1COCCOC1", "note": "(stereo not drawn) [Compound 27]", "IC50": 162}
{"smiles": "COCC(C)N1C(=O)/C(=C2/COCCN2)c2cc(NC(C)C)ccc21", "note": "(stereo not drawn) [Compound 28]", "IC50": 69}
{"smiles": "CC1CCC(C)N1c1ccc2c(c1)/C(=C1\\CCOCCN1)C(=O)N2C1CCOCC1", "note": "(stereo not drawn) [Compound 29]", "IC50": 132}
{"smiles": "CC(C)Nc1ccc2c(c1)/C(=C1\\COCCN1)C(=O)N2[C@H]1CCN(C(C)C)C1", "note": "[Compound 31]", "IC50": 81}
{"smiles": "O=C1/C(=C2/COCCN2)c2cc(NC3CCOCC3)ccc2N1C1CCOC1", "note": "(stereo not drawn) [Compound 32]", "IC50": 31}
{"smiles": "CC(C)Nc1ccc2c(c1)/C(=C1\\COCC(C)N1)C(=O)N2C1CCOCC1", "note": "(stereo not drawn) [Compound 33]", "IC50": 32}
{"smiles": "CC(=O)N1CCC2(CC1)CN/C(=C1\\C(=O)N(C(C)C)c3ccc(NC(C)C)cc31)CO2", "note": "[Compound 34]", "IC50": 48}
{"smiles": "Nc1ccc2c(c1)/C(=C1\\COCCN1)C(=O)N2C1CCOCC1", "note": "[Compound 35]", "IC50": 83}
{"smiles": "CC(C)N1C(=O)/C(=C2/COCCN2)c2cc(NC3CCOCC3)ccc21", "note": "[Compound 36]", "IC50": 150}
{"smiles": "CC(Nc1ccc2c(c1)/C(=C1\\COCCN1)C(=O)N2C(C)C)C1CCC1", "note": "(stereo not drawn) [Compound 37]", "IC50": 405}
{"smiles": "CC(C)N1C(=O)/C(=C2/COCCN2)c2cc(NC3CCN(C)CC3)ccc21", "note": "[Compound 38]", "IC50": 51}
{"smiles": "CC(C)N1C(=O)/C(=C2/COCCN2)c2cc(NCC3CCOC3)ccc21", "note": "(stereo not drawn) [Compound 39]", "IC50": 67}
{"smiles": "CN1C(=O)/C(=C2/CCNCCN2)c2cc(N3CCCC3)ccc21", "note": "[Compound 40]", "IC50": 166}
{"smiles": "CN(C)c1ccc2c(c1)/C(=C1\\CCOCCN1)C(=O)N2C", "note": "[Compound 41]", "IC50": 52}
{"smiles": "CN(C)c1ccc2c(c1)/C(=C1\\CCCN1)C(=O)N2C1CCOCC1", "note": "[Compound 42]", "IC50": 42}
{"smiles": "CNc1ccc2c(c1)/C(=C1\\CCCN1)C(=O)N2C1CCOCC1", "note": "[Compound 43]", "IC50": 11}
{"smiles": "CC(C)Nc1ccc2c(c1)/C(=C1\\COCCN1)C(=O)N2C(C)C", "note": "[Compound 44]", "IC50": 44}
{"smiles": "CN1C(=O)/C(=C2/CCN(C3COC3)CCN2)c2cc(N3CCCC3)ccc21", "note": "[Compound 45]", "IC50": 259}
{"smiles": "CC(C)Nc1ccc2c(c1)/C(=C1\\CN(C(C)C)CCN1)C(=O)N2C1CCOCC1", "note": "[Compound 46]", "IC50": 86}
{"smiles": "CC(C)Nc1ccc2c(c1)C(=C1CCOCC1)C(=O)N2C(C)C", "note": "[Compound 47]", "IC50": 153}
{"smiles": "CC(C)Nc1ccc2c(c1)/C(=C1\\CCCN1C)C(=O)N2C1CCOCC1", "note": "[Compound 48]", "IC50": 122}
{"smiles": "CN1CCC/C1=C1/C(=O)N(C2CCOCC2)c2ccc(NC3CCOC3)cc21", "note": "(stereo not drawn) [Compound 49]", "IC50": 282}
{"smiles": "O=C1/C(=C2/COCCN2)c2cc(NC3CCCC3)ccc2N1C1COCCOC1", "note": "[Compound 50]", "IC50": 195}
{"smiles": "O=C1/C(=C2/COCCN2)c2cc(NC3CCC3)ccc2N1C1COC1", "note": "[Compound 51]", "IC50": 135}
{"smiles": "COCC(C)Nc1ccc2c(c1)/C(=C1\\COCCN1)C(=O)N2C1CCOC1", "note": "(stereo not drawn) [Compound 52]", "IC50": 61}
{"smiles": "CC(=O)N1CCC2(CC1)CN/C(=C1\\C(=O)N(C(C)C)c3ccc(N4CCCC4)cc31)CO2", "note": "[Compound 53]", "IC50": 233}
{"smiles": "CCC(C)Nc1ccc2c(c1)/C(=C1\\COCCN1)C(=O)N2C(C)C", "note": "(stereo not drawn) [Compound 54]", "IC50": 203}
{"smiles": "CC(C)N1C(=O)/C(=C2/COCCN2)c2cc(NC(C)C(C)(C)C)ccc21", "note": "(stereo not drawn) [Compound 55]", "IC50": 307}
{"smiles": "CC(Nc1ccc2c(c1)/C(=C1\\COCCN1)C(=O)N2C(C)C)C1CCCC1", "note": "(stereo not drawn) [Compound 56]", "IC50": 159}
{"smiles": "CC(Nc1ccc2c(c1)/C(=C1\\COCCN1)C(=O)N2C(C)C)c1cnccn1", "note": "(stereo not drawn) [Compound 57]", "IC50": 73}
{"smiles": "CC(C)N1C(=O)/C(=C2/COCCN2)c2cc(NCC3CC3)ccc21", "note": "[Compound 58]", "IC50": 100}
{"smiles": "CCC(C)Nc1ccc2c(c1)/C(=C1\\COCCN1)C(=O)N2C1CCOCC1", "note": "(stereo not drawn) [Compound 59]", "IC50": 122}
{"smiles": "O=C1/C(=C2/COCCN2)c2cc(NC3CCCC3)ccc2N1C1CCOCC1", "note": "[Compound 60]", "IC50": 245}
{"smiles": "CC(Nc1ccc2c(c1)/C(=C1\\COCCN1)C(=O)N2C1CCOCC1)C1CCCC1", "note": "(stereo not drawn) [Compound 61]", "IC50": 343}
{"smiles": "CN(C)c1ccc2c(c1)/C(=C1\\CCCCN1)C(=O)N2C", "note": "[Compound 62]", "IC50": 81}
{"smiles": "CC(C)Nc1ccc2c(c1)/C(=C1\\COCCN1)C(=O)N2C", "note": "[Compound 63]", "IC50": 22}
{"smiles": "CN1CCN/C(=C2\\C(=O)N(C)c3ccc(N4CCCC4)cc32)CC1", "note": "[Compound 64]", "IC50": 286}
{"smiles": "O=C1/C(=C2/COCCN2)c2cc(NC3CCCC3)ccc2N1C1COC1", "note": "[Compound 65]", "IC50": 194}
{"smiles": "CC(C)C(C)Nc1ccc2c(c1)/C(=C1\\COCCN1)C(=O)N2C1COC1", "note": "(stereo not drawn) [Compound 66]", "IC50": 169}
{"smiles": "CC(Nc1ccc2c(c1)/C(=C1\\COCCN1)C(=O)N2C1COC1)C1CC1", "note": "(stereo not drawn) [Compound 67]", "IC50": 225}
{"smiles": "COCC(C)N1C(=O)/C(=C2/COCCN2)c2cc(N3CCCC3)ccc21", "note": "(stereo not drawn) [Compound 68]", "IC50": 624}
